Patent publication US12291516B2, “Substituted 1-amino-1H-imidazole-5-carboxamide as Bruton's tyrosine kinase inhibitors” (Henan Zhiwei Biomedicine Co., Ltd., priority 2019, dated 2025)

Biological target: BTK (Homo sapiens (Human), UniProt Q06187)
Test: BTK inhibition assay by Reaction Biology Corporation (33P-ATP, filter-binding)
Assay type: biochemical
Details: footnote a: from Reaction Biology Corporation
Description: BTK inhibition Assay and selectivity Assay The assay was conducted either a by a third party (Reaction Biology Corporation, PA, USA) or in house.
a) Reagent and Procedure by Reaction Biology Corporation:
Base Reaction buffer; 20 mM Hepes (pH 7.5), 10 mM MgCl2, 1 mM EGTA, 0.02%. Brij35, 0.02 mg/ml BSA, 0.1 mM Na3VO4, 2 mM DTT, 1% DMSO. Required cofactors were added individually to each kinase reaction. Compound handling: testing compounds were dissolved in 100% DMSO to specific concentration. The serial dilution was conducted by Integra Viaflo Assist in DMSO.
The substrate was prepared in freshly prepared reaction buffer of above and required cofactors were added to the substrate solution. The kinase was delivered to the substrate solution and the mixture was gently mixed. Testing compounds in 100% DMSO was added to the kinase reaction mixture by Acoustic technology (Echo550; nanoliter range) and the new mixture was incubated for 20 min at room temperature. Then ^33P-ATP (Specific activity 10 μCi/μl) was added to the reaction mixture to initiate the reaction and the mixture was incubated for 2 hours at room temperature. The radioactivity was detected by filter-binding method and the kinase activity data was expressed as the percent of remaining kinase activity in test sample compared to vehicle (dimethyl sulfoxide) reaction. IC50 values and curve fits were obtained using Prism (GraphPad Software). The result is outlined in Table-I

BTK, sequence (Q06187 whole entry): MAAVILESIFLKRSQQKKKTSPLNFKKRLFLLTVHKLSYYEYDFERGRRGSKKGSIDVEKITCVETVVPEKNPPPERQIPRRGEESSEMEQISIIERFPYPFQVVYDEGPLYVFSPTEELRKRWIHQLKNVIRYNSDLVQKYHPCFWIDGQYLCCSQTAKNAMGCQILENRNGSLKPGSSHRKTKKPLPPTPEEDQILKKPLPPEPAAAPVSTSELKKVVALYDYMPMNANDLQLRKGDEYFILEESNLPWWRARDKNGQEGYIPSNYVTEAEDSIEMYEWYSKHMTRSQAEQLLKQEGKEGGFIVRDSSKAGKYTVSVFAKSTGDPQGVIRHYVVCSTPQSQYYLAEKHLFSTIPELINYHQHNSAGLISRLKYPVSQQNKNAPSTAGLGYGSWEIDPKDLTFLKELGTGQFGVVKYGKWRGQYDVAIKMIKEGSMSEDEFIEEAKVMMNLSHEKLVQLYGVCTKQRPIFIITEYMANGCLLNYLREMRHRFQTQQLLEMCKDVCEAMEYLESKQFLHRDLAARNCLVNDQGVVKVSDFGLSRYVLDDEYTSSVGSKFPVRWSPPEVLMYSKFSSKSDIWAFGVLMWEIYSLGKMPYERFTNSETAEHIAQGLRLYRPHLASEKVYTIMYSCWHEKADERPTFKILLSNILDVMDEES

Row | Structure (SMILES) | IC50 [nM]
1 | C=CC(=O)N1CCCC[C@H]1c1nc(-c2ccc(C(=O)Nc3cc(CC)ccn3)cc2)c(C(N)=O)n1N [Example 73, (S)-2-(1-acryloylpiperidin-2-yl)-1-amino-4-(4-((4-ethylpyridin-2-yl)carbamoyl)phenyl)-1H-imidazole-5-carboxamide] | 9.68
2 | C=CC(=O)N1CCCC[C@H]1c1nc(-c2ccc(C(=O)Nc3cc(CC)ccn3)cc2)c(C(N)=O)n1NC [Example 81, (S)-2-(1-acryloylpiperidin-2-yl)-4-(4-((4-ethylpyridin-2-yl)carbamoyl)phenyl)-1-(methylamino)-1H-imidazole-5-carboxamide] | 11
3 | C=CC(=O)N1CCCC[C@H]1c1nc(-c2ccc(C(=O)Nc3ccc(Cl)cn3)cc2)c(C(N)=O)n1N [Example 86, (S)-2-(1-acryloylpiperidin-2-yl)-1-amino-4-(4-((5-chloropyridin-2-yl)carbamoyl)phenyl)-1H-imidazole-5-carboxamide] | 29.2
4 | C=CC(=O)N1CCCC[C@H]1c1nc(-c2ccc(C(=O)Nc3cc(Br)ccn3)cc2)c(C(N)=O)n1N [Example 87, (S)-2-(1-acryloylpiperidin-2-yl)-1-amino-4-(4-((4-bromopyridin-2-yl)carbamoyl)phenyl)-1H-imidazole-5-carboxamide] | 4.38
5 | CC#CC(=O)N1CCCC[C@H]1c1nc(-c2ccc(C(=O)Nc3cc(Br)ccn3)cc2)c(C(N)=O)n1N [Example 88, (S)-1-amino-4-(4-((4-bromopyridin-2-yl)carbamoyl)phenyl)-2-(1-(but-2-ynoyl)piperidin-2-yl)-1H-imidazole-5-carboxamide] | 22.6
6 | C=CC(=O)N1CCCC[C@H]1c1nc(-c2ccc(C(=O)Nc3cc(I)ccn3)cc2)c(C(N)=O)n1N [Example 89, (S)-2-(1-acryloylpiperidin-2-yl)-1-amino-4-(4-((4-iodopyridin-2-yl)carbamoyl)phenyl)-1H-imidazole-5-carboxamide] | 6.12
7 | C=CC(=O)N1CCCC[C@H]1c1nc(-c2ccc(C(=O)Nc3cc(-c4ccc(F)cc4)ccn3)cc2)c(C(N)=O)n1N [Example 91, (S)-2-(1-acryloylpiperidin-2-yl)-1-amino-4-(4-((4-(4-fluorophenyl)pyridin-2-yl)carbamoyl)phenyl)-1H-imidazole-5-carboxamide] | 4.97
8 | C=CC(=O)N1CCC[C@@H](c2nc(-c3ccc(C(=O)Nc4cc(CC)ccn4)cc3)c(C(N)=O)n2N)C1 [Example 93, (R)-2-(1-acryloylpiperidin-3-yl)-1-amino-4-(4-((4-ethylpyridin-2-yl)carbamoyl)phenyl)-1H-imidazole-5-carboxamide] | 14.6
9 | C=CC(=O)N1CCCC[C@H]1c1nc(-c2ccc(C(=O)Nc3nccs3)cc2)c(C(N)=O)n1N [Example 105, (S)-2-(1-acryloylpiperidin-2-yl)-1-amino-4-(4-(thiazol-2-ylcarbamoyl)phenyl)-1H-imidazole-5-carboxamide] | 18.7
